{"source": "patent US20250213593A1", "about": "“Use of Derivatives based on Sarsasapogenin Structure and Pharmaceutical Compositions thereof” (BEIJING PHYTOVENT PHARMACEUTICAL TECHNOLOGY CO., LTD., priority 2022, published 2025)", "key": {"[1]": {"tested_on": "C57BL/6 mice modeled with MPTP", "assay": "PD mouse model (MPTP)", "format": "in vivo", "conditions": "80 mpk, 15 days; vs model group, T-test", "method": "• Experimental and analytical method: mice of C57BL/6 strain were used in this experiment, which were divided into 5 groups, including a normal control group (no injection of MPTP), a model group (modeling with MPTP), and treatment groups of three small molecules (Embodiment 13B, Embodiment 25A, and Embodiment 25B). The drug was administered at the same time as modeling was made. The modeling lasted for 5 days, followed by 30 mpk intraperitoneal injection till lasting for 15 days, and lasted for 15 days at 80 mpk. At the endpoint, the brain was soaked and fixed in PFA after cardiac perfusion, and transferred to sucrose dehydration after complete fixation, and OCT embedding and sectioning were used for TH staining after complete dehydration. The detection indicator was the number of TH-positive cells in the substantia nigra. The more positive cells, the better the protection effect of small molecules against MPTP damage. • Results: there were 12 mice in each group, and the statistical results were shown in FIG. 50, T-test, **: p<0.01, #: p<0.05."}, "[2]": {"tested_on": "SOD^G93A transgenic mice", "assay": "Open field test of SOD^G93A mice", "conditions": "40 mpk from Day 60, Week 14 to Week 19; vs model group", "quoted_text": "A mean moving speed was calculated in an open field, which is a behavioral analysis method to test motor dysfunction. The mice with motor dysfunction would have a significant reduction in mean moving speed. Our experiments were divided into three groups, i.e., a WT group, a model group and an administration group."}, "[3]": {"tested_on": "TDP43^A315T transgenic mice", "conditions": "40 mpk from Day 60", "from_the_text": "Our experiments were divided into two groups, i.e., a model group and an administration group."}, "[4]": {"tested_on": "rats with ulcerative colitis induced by TNBS", "assay": "TNBS rats enteritis model", "format": "in vivo, rat", "conditions": "80 mpk oral gavage once a day, 7 days", "method": "All rats except the normal control group were fasted for solids (not liquids) for 24 h. After being anesthetized with isoflurane, the rats were transrectally infused with a TNBS ethanol solution (18 mg TNBS/mouse) at 0.5 mL/mouse through a latex hose, the length of the hose into the rectum was about 8 cm, an anesthesia state was continued after the hose was withdrawn, and the rats were kept in an inclined state for 15 min. The rats in the normal control group were not stimulated with rectal cannula. After the animals were awake, they were randomly divided into groups, which then began to be administrated with drugs (marked as D1). The blank group and the model group were administrated with the same amount of vehicle by oral gavage once a day for 7 consecutive days (D1-D7). The animal's status and feces (loose stools or bloody stools) were observed every day. The body weights were monitored. On the next day after the last administration (D8), the animals were deeply anesthetized with CO2, sacrificed and dissected. The entire colon tissues were harvested. The colon content was washed with normal saline after dissection along the mesenteric side. The body weights were measured and the colon lengths were measured. A ulcer surface was measured by Image J software. The general conditions of the colons were observed and photographed. Some of diseased tissues were fixed with formalin, and subjected to histopathological observation by HE staining. • Results: (1) the effects on general conditions of TNBS colitis mice were shown in FIG. 46a: the rats had loose stool on the next day of TNBS modeling; and the modeled mice had symptoms of reduced diet, tiredness, emaciation, erect hair, and dull hair. The feces of some rats were improved in the later stage of administration, but some rats still maintained loose stool until the end of the experiment, and some rats had obvious abdominal distension in the later stage of the experiment."}, "[5]": {"tested_on": "mice with ulcerative colitis induced by 3.0% DSS", "assay": "DSS mouse enteritis model", "format": "in vivo", "conditions": "80 mpk oral gavage once a day, 9 days", "excerpt": "60 mice in good health were divided into 6 groups according to body weight, with 10 mice in each group: a normal control group, a model group, a positive drug group, and groups of different test products (Embodiment 13B, Embodiment 33, and Embodiment 34, at a dosage of 80 mpk each). In addition to the normal control group, the mice in other groups were administrated with a 3.0% DSS solution to drink freely, and consecutively modeled for 8 days. The normal control group was administrated with autoclaved filtered water to drink freely. The drug was administered on the day of modeling, and a test product was administered by oral gavage according to a designed dosage, once a day for 9 consecutive days. […] On the next day after the last administration, after deep anesthesia with CO2, cardiac blood and plasma were collected, and cryopreserved at −80° C. Subsequently, the abdominal cavity was dissected, the liver was removed and cryopreserved at −80° C. Finally, the entire colon tissue was removed, the colon length was measured, photographs were taken, and the colon content was washed with normal saline after dissection along the mesenteric side and weighed."}, "[6]": {"tested_on": "APOE−/− mutant B6J mice", "assay": "Cardiovascular inflammation of APOE mutant mice fed with high-fat diets", "format": "in vivo, mouse", "conditions": "oral gavage once every 2 days, high-fat diets 16 weeks", "excerpt": "Experimental and analytical method: 6-week-old male APOE−/− mutant B6J mice and WT B6J mice were purchased and acclimatized in a feeding room for 2 weeks. When the mice were 8 weeks old, except for a Vehicle group and a WT group, the rest of the groups were given high-fat diets (Research Diets, D12492). When the mice were 9 weeks old, the Control group was given a 10% cyclodextrin solution, while the rest of the administration groups began to be grouped and administrated with different small molecule compounds (Embodiment 13B, Embodiment 33, Embodiment 36 and Embodiment 37) by oral gavage, at a frequency of once every 2 days. After being fed with high-fat diets for 16 weeks, the APOE mice were sacrificed and aortic arches were taken and dissected."}, "[7]": {"tested_on": "SOD^G93A transgenic mice", "assay": "Gait analysis of SOD^G93A mice", "conditions": "40 mpk from Day 60, tested at Week 19; vs model group", "from_the_text": "Gait analysis was a behavioral analysis method that tested motor dysfunction. The mice with motor dysfunction would have a significant reduction in stride length. Our experiments were divided into two groups, i.e., a model group and an administration group."}}}
{"smiles": "C[C@H]1CC[C@@]2(OC1)O[C@H]1C[C@@H]3[C@H](CC[C@H]4[C@H]3CC[C@@H]3C[C@H](NC(=O)CC(=O)N5CCN(CCN(C)C)CC5)CC[C@@]34C)[C@H]1[C@@H]2C", "note": "[Embodiment 13b]", "values": [{"measurement": "number of TH-positive cells in the substantia nigra", "setting": "[1]", "value": "statistically significant differences"}, {"measurement": "mean moving rate in open field", "setting": "[2]", "value": "much larger"}, {"measurement": "survival time (in words)", "setting": "[3]", "value": "could effectively prolong the survival time"}, {"measurement": "start of significant body weight decrease", "setting": "[3]; model group Week 13", "value": 16, "unit": "Week"}, {"measurement": "death median", "setting": "[3]; model group about Day 120", "value": 135, "unit": "days"}, {"measurement": "all died", "setting": "[3]; model group about Day 140", "value": 150, "unit": "days"}, {"measurement": "first deaths", "setting": "[3]; model group from Day 90", "value": "> 100", "unit": "days"}, {"measurement": "colon ulcer area", "setting": "[4]", "value": "more significant"}, {"measurement": "colon weight per unit length (colon weight/colon length)", "setting": "[4]", "value": "more significant"}, {"measurement": "colon length", "setting": "[5]", "value": "could increase the weights and lengths of the colons"}, {"measurement": "colon weight", "setting": "[5]", "value": "could increase the weights and lengths of the colons"}, {"measurement": "general conditions of DSS colitis mice", "setting": "[5]", "value": "certain improvement effects"}, {"measurement": "inflammatory factors IL10, IL-1β and KC/GRO in aortic vascular epithelial tissue", "setting": "[6]", "value": "most significant"}, {"measurement": "stride length", "setting": "[7]", "value": "much larger"}]}
